Experimental data taken from ChEMBL document CHEMBL1909046, “DrugMatrix in vitro pharmacology data”.

How the values were obtained:
[1] = biological target: T1, Muscarinic acetylcholine receptor M5 (Homo sapiens, UniProt P08912); type: cell membranes, Membrane; conditions: cho-k1; also: in other assays of this panel Not Active means under 50% inhibition at 10 µM
T1 sequence (P08912 whole entry): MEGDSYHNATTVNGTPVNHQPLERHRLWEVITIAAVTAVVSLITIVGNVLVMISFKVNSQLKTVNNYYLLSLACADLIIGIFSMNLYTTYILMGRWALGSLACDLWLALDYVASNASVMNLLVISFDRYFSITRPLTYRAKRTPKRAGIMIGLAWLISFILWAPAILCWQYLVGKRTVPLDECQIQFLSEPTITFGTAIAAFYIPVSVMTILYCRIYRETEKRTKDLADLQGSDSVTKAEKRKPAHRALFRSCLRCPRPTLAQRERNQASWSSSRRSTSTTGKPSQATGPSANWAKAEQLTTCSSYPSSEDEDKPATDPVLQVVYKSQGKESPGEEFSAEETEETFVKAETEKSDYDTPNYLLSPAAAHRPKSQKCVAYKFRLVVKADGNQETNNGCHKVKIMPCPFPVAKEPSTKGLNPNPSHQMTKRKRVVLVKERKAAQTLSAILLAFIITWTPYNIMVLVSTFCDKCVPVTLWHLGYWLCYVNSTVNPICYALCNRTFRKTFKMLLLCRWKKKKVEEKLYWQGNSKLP

[2] = DRUGMATRIX: Purinergic P2X radioligand binding (ligand: [3H] alpha, beta-Methylene-ATP); type: cell membranes, Oryctolagus cuniculus, New Zealand albino, Urinary bladder, Membrane; conditions: Not Active = under 50% inhibition at 10 µM
[3] = DRUGMATRIX: Serotonin (5-Hydroxytryptamine) 5-HT3 radioligand binding (ligand: [3H] GR-65630); type: cell membranes, Membrane; conditions: hek293; Not Active = under 50% inhibition at 10 µM
[4] = DRUGMATRIX: GABAA, Muscimol, Central radioligand binding (ligand: [3H] Muscimol); type: cell membranes, Rattus norvegicus, Wistar, Brain, Membrane; conditions: Not Active = under 50% inhibition at 10 µM
[5] = biological target: T2, Nitric oxide synthase, inducible (Mus musculus, UniProt P29477); set-up: species or system Escherichia coli;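 also: inhibition of iNOS enzyme activity measured with L-arginine as substrate; in other assays of this panel Not Active means under 50% inhibition at 10 µM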
T2 sequence (P29477 whole entry): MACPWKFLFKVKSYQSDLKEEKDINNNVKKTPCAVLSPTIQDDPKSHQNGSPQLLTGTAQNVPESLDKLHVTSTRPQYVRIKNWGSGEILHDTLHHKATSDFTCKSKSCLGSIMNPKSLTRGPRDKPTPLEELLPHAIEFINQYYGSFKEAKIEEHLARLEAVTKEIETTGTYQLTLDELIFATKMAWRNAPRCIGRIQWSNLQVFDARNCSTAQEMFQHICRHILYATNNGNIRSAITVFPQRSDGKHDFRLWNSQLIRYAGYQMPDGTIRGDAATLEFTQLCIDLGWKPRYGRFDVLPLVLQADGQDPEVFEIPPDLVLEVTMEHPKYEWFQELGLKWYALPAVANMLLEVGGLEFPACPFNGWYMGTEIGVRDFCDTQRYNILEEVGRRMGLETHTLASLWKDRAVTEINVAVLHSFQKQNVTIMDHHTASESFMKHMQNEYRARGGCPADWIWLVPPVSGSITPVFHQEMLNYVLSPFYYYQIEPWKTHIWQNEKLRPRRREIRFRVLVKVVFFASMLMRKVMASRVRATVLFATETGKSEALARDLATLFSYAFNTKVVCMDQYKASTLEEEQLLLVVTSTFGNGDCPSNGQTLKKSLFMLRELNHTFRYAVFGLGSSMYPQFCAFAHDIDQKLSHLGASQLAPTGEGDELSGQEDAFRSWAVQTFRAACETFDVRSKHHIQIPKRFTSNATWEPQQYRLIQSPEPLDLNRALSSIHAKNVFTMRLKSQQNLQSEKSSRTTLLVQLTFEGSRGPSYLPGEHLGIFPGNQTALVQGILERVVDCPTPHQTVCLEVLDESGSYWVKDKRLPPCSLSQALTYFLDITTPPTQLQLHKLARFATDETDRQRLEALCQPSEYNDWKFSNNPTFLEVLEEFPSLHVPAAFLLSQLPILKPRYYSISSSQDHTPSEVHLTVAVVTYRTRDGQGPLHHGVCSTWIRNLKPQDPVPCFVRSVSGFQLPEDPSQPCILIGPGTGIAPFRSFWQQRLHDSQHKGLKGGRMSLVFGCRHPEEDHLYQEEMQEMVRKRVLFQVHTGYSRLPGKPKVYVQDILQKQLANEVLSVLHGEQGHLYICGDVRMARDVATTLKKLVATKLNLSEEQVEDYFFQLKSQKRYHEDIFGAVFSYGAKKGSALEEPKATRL

[6] = biological target: T3, Cytochrome P450 1A2 (Homo sapiens, UniProt P05177); conditions: bti-tn-5b1-4; also: in other assays of this panel Not Active means under 50% inhibition at 10 µM
T3 sequence (P05177 whole entry): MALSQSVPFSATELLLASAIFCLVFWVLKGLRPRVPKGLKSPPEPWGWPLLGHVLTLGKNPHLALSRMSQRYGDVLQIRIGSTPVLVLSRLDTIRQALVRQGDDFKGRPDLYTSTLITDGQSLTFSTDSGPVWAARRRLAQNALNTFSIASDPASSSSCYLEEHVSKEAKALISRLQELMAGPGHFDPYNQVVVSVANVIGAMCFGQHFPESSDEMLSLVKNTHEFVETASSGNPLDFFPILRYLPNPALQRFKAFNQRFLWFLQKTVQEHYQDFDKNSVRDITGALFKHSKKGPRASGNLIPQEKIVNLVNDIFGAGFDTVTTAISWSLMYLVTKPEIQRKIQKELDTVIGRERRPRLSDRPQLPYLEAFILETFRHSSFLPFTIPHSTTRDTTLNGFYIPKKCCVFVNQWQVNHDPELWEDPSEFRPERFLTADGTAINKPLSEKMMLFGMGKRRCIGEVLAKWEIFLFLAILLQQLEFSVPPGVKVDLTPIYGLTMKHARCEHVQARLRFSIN

[7] = biological target: Acetylcholinesterase (Homo sapiens, UniProt P22303); test: DRUGMATRIX: Acetylcholinesterase enzyme inhibition (substrate: acetylthiocholine); type: cell-based, HEK293; conditions: hek293; Not Active = under 50% inhibition at 10 µM
Sequence of Acetylcholinesterase (P22303 whole entry): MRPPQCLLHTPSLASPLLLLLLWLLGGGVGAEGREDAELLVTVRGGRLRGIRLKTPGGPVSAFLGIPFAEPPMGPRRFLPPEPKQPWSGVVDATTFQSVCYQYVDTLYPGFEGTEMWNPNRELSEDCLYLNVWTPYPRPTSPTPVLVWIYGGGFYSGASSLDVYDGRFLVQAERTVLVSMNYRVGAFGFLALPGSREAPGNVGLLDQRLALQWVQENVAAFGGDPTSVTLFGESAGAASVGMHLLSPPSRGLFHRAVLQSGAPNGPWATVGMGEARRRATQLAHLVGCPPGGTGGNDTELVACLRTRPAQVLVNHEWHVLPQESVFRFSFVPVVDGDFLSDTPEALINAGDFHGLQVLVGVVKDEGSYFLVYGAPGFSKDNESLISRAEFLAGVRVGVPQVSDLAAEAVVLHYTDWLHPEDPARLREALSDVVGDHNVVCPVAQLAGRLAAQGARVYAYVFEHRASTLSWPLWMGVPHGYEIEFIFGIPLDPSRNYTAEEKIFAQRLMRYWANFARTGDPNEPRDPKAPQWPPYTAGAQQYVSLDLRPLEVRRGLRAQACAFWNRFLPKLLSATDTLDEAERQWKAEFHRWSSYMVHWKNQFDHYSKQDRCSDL

[8] = biological target: T4, B2 bradykinin receptor (Homo sapiens, UniProt P30411); type: cell membranes, Membrane; conditions: chem-1; also: in other assays of this panel Not Active means under 50% inhibition at 10 µM
T4 sequence (P30411 whole entry): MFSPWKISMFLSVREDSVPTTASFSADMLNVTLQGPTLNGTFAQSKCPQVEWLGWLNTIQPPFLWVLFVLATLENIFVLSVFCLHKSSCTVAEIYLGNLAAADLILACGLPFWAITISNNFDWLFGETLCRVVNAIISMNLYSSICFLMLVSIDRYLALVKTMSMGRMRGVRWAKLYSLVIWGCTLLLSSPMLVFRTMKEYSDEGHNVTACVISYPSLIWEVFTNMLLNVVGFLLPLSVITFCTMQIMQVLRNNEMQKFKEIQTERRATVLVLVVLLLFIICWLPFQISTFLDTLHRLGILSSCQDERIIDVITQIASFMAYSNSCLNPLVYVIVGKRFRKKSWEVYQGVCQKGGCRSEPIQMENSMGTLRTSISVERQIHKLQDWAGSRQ

CCN[C@@H](C)Cc1cccc(C(F)(F)F)c1 [DEXFENFLURAMINE]
Not Active: IC50 [1] | IC50 [2] | Ki [2] | IC50 [3] | Ki [3] | IC50 [4] | Ki [4] | IC50 [5] | IC50 [6] | Ki [6] | IC50 [7] | IC50 [8]

C[C@H](C(=O)O)c1cccc(C(=O)c2ccccc2)c1 [DEXKETOPROFEN]
Not Active: IC50 [1] | IC50 [2] | Ki [2] | IC50 [3] | Ki [3] | IC50 [4] | Ki [4] | IC50 [5] | IC50 [6] | Ki [6] | IC50 [7] | IC50 [8]

CN1C[C@H](C(=O)N[C@]2(C)O[C@@]3(O)[C@@H]4CCCN4C(=O)[C@H](Cc4ccccc4)N3C2=O)C[C@@H]2c3cccc4[nH]cc(c34)C[C@H]21 [DIHYDROERGOTAMINE]
Not Active: IC50 [1] | IC50 [2] | Ki [2] | IC50 [3] | Ki [3] | IC50 [4] | Ki [4] | IC50 [5] | IC50 [6] | Ki [6] | IC50 [7] | IC50 [8]

Cc1c(N(C)CS(=O)(=O)[O-])c(=O)n(-c2ccccc2)n1C.[Na+] [DIPYRONE SODIUM]
Not Active: IC50 [1] | IC50 [2] | Ki [2] | IC50 [3] | Ki [3] | IC50 [4] | Ki [4] | IC50 [5] | IC50 [6] | Ki [6] | IC50 [7] | IC50 [8]

CC(CCc1ccc(O)cc1)NCCc1ccc(O)c(O)c1 (stereo not given) [DOBUTAMINE]
Not Active: IC50 [1] | IC50 [2] | Ki [2] | IC50 [3] | Ki [3] | IC50 [4] | Ki [4] | IC50 [5] | IC50 [6] | Ki [6] | IC50 [7] | IC50 [8]

CCn1cc(C(=O)O)c(=O)c2cc(F)c(N3CCNCC3)nc21 [ENOXACIN]
Not Active: IC50 [1] | IC50 [2] | Ki [2] | IC50 [3] | Ki [3] | IC50 [4] | Ki [4] | IC50 [5] | IC50 [6] | Ki [6] | IC50 [7] | IC50 [8]

CCC(=O)O[C@H]1[C@H](O[C@@H]2[C@@H](C)[C@H](O[C@H]3C[C@@](C)(OC)[C@@H](O)[C@H](C)O3)[C@@H](C)C(=O)O[C@H](CC)[C@@](C)(O)[C@H](O)[C@@H](C)C(=O)[C@H](C)C[C@@]2(C)O)O[C@H](C)C[C@@H]1N(C)C [ERYTHROMYCIN PROPIONATE]
Not Active: IC50 [1] | IC50 [2] | Ki [2] | IC50 [3] | Ki [3] | IC50 [4] | Ki [4] | IC50 [5] | IC50 [6] | Ki [6] | IC50 [7] | IC50 [8]

C=C(CC)C(=O)c1ccc(OCC(=O)O)c(Cl)c1Cl [ETHACRYNIC ACID]
Not Active: IC50 [1] | IC50 [2] | Ki [2] | IC50 [3] | Ki [3] | IC50 [4] | Ki [4] | IC50 [5] | IC50 [6] | Ki [6] | IC50 [7] | IC50 [8]

C#C[C@]1(O)CC[C@H]2[C@@H]3CCc4cc(O)ccc4[C@H]3CC[C@@]21C [ETHINYL ESTRADIOL]
Not Active: IC50 [1] | IC50 [2] | Ki [2] | IC50 [3] | Ki [3] | IC50 [4] | Ki [4] | IC50 [5] | IC50 [6] | Ki [6] | IC50 [7] | IC50 [8]

OCCO [ETHYLENE GLYCOL]
Not Active: IC50 [1] | IC50 [2] | Ki [2] | IC50 [3] | Ki [3] | IC50 [4] | Ki [4] | IC50 [5] | IC50 [6] | Ki [6] | IC50 [7] | IC50 [8]
